From US5594009A, “Fused pyrrolocarbazoles” (priority 1995, dated 1997)
Where two headings read alike, the source gives them in different places.

Key:
[1] = test system: choline acetyltransferase (ChAT) activity in dissociated rat embryonic spinal cord culture; test: Spinal Cord ChAT Activity Assay; assay type: cell-based; conditions: ChAT measured after 48 hours
Protocol: In these assays, a fused pyrrolocarbazole was directly added to a dissociated spinal cord culture. […] The fused pyrrolocarbazole was added on the same day the dissociated spinal cord cell culture was initiated.
Methods: Fetal rat spinal cord cells were dissociated, and experiments were performed as described (Smith et al., J. Cell Biology., 101:1608-1621 (1985); Glicksman et al., J. Neurochem. 61:210-221 (1993)). Dissociated cells were prepared from spinal cords dissected from rats (embryonic day 14-15) by standard trypsin dissociation techniques (Smith et al., J. Cell Biology 10:1608-1621 (1985)). Cells were plated at 6×10^5 cells/cm^2 on poly-1-ornithine coated plastic tissue culture wells in serum-free N2 medium supplemented with 0.05% bovine serum albumin (BSA) (Bottenstein et al., PNAS USA 514-517 (1979)). Cultures were incubated at 37° C. in a humidified atmosphere of 5% CO2 /95% air for 48 hours. ChAT activity was measured after 2 days it vitro using a modification of the Fonnum procedure (Fonnum, J. Neurochem. 24:407-409 (1975)) according to McManaman et al. and Glicksman et al. (McManaman et al., Developmental Biology 125:311-320 (1988); Glicksman et al., J. Neurochem. 61:210-221 (1993)).

[2] = test system: ChAT activity of basal forebrain cultures; test: Basal Forebrain ChAT Activity Assay; assay type: cell-based, rat
Protocol: Fused pyrrolocarbazoles were tested for the ability to increase ChAT activity of basal forebrain cultures.
Methods: The basal forebrain was dissected from rat embryos (day 17 or 18 embryos) and the cells were dissociated with a neutral protease (Dispase™, Collaborative Research). Neurons were plated at a density of 5×10^4 cells/well (1.5×10^5 cells/cm^2) in poly-1-ornithine and laminin coated plates. Cells were cultured in serum-free N2 medium containing 0.05% BSA at 37° C. in a humidified atmosphere, 5% CO2 /95% air. ChAT activity was assessed 5 days after plating by using the ChAT assay as described in Example III(A)(1).

[3] = test system: AT-2 cells; test: Inhibition of Growth of Prostate Cancer Cell Line (MTS assay); assay type: cell-based; conditions: 72 h, read-out: AT-2 cell growth IC50
Protocol: AT-2 cells are a prostate cancer cell sub-line derived from the Dunning H tumor, graciously provided to us by Dr. John Isaacs (John Hopkins, M. D.). Unlike the Dunning H tumor cells, AT-2 cells can be grown in vitro.
Methods: At-2 cells ([…]) were plated on tissue culture plastic in 96-well plates in the presence of RPMI-1640 medium containing 10% fetal calf serum, 250 nM dexamethasone, 2 mM glutamine, 1 mM sodium pyruvate, and penicillin/streptomycin antibiotics. The next day, compounds were added at 4 concentrations (10, 1, 0.1, 0.01 μM) to determine the approximate IC50 range. Cultures were assayed 3 days later for cell number using the MTS [(3-(4,5-dimethylthiazol-2-yl)-5-(3-carboxymethoxyphenyl)-2-(4-sulfophenyl)-2H-tetrazolium, inner salt)] assay. The MTS assay (purchased as a kit from Promega) measures the formation of an aqueous soluble formazan (detected by a plate reader at 490nm) produced by the bioreduction of a tetrazolium compound (MTS) in metabolically active cells via mitochondrial succinate dehydrogenase. After determining linearity of the substrate incubation time over a range of cell plating densities, the amount of product measured is directly proportional to cell number. MTS (333 ug/ml) and 25 μM phenazine methosulfate are mixed and added directly to the culture medium, and incubated at 37° C. in the 5% CO2 /95% air incubator for 0.5-4 h. Absorbance of the product at 490 nm is read on the BIO-TEK plate reader. Background values were obtained from wells containing culture medium with substrate solution, but no cells. In addition, values were also obtained from wells containing cells plated at day 0 and assayed on the day compound was added (day 1) in order to determine the number of cells at the time compound was added. After the initial dose-finding experiment was completed, subsequent experiments were set up so that there were 3 or more concentrations near the predicted IC50.

[4] = target: protein kinase C; test: PKC Activity Inhibition Assay; assay type: biochemical
Protocol: Fused pyrrolocarbazoles inhibited the activity of protein kinase C (Table VI). The protein kinase C assay has been disclosed (Murakata et al., U.S. Pat. No. 4,923,986; Kikkawa et al., J. Biol. Chem. 257:13341-13348 (1982)). The assay was performed with several concentrations of fused pyrrolocarbazoles. The concentration at which protein kinase C was 50% inhibited (IC50) was determined.

[5] = target: trkA tyrosine kinase (Homo sapiens, UniProt P04629); test: trkA Tyrosine Kinase Activity Inhibition Assay (ELISA); assay type: biochemical
trkA tyrosine kinase, sequence (P04629 33-796): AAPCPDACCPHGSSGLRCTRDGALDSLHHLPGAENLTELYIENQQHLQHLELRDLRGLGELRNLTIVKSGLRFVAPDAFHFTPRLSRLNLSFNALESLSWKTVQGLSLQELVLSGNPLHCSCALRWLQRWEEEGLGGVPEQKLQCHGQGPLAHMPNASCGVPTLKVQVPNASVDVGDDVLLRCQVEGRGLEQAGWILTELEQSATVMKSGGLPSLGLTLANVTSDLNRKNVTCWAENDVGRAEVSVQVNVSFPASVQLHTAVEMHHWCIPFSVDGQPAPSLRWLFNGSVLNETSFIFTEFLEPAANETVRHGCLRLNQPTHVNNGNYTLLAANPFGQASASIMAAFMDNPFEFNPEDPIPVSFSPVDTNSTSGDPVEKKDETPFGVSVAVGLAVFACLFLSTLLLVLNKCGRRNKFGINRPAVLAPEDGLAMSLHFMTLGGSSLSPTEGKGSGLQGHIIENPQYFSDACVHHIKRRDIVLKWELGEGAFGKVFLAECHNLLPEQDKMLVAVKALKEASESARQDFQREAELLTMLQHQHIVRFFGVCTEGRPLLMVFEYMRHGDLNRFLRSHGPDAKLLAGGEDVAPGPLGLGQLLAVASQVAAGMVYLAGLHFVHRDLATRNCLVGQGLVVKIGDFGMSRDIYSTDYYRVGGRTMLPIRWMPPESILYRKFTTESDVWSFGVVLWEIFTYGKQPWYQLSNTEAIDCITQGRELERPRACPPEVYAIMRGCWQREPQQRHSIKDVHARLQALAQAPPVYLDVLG

[6] = test system: NT-3 induced ChAT activity of rat basal forebrain cultures; test: Enhancement of Neurotrophin (NT-3) Activity Assay, ChAT activity in basal forebrain cultures; assay type: cell-based
Protocol: Fused pyrrolocarbazoles were tested for the ability to enhance the activity of the neurotrophin NT-3 in basal forebrain cultures. ChAT activity was assayed as a measure of cholinergic neuron function and survival. The concentration of NT-3 (100 ng/ml) used in these experiments increased ChAT activity over control cultures (untreated with NT-3 or a fused pyrrolocarbazole) by 140%.
Methods. Basal forebrain cultures were prepared from embryonic rats (embryonic day 17) and dissociated with the neutral protease Dispase™. Cells were plated at a density of 4×10^5 cells/cm^2 on poly-1-ornithine coated plastic tissue culture plates in a mixture of DMEM and F12 media (50/50 v/v GIBCO) supplemented with 5% horse serum and 0.5% fetal bovine serum. Cells were incubated at 37° C. in a humidified atmosphere of 5% CO2 /95% air for 5 days. ChAT activity was measured as described in Example III(A)(1).
Recombinant rat NT-3 was produced by using a recombinant baculovirus expression vector under the control of the polyhedron virus promoter (Fraser, In Vitro Cell. and Dev. Biol. 25:225-235 (1989)). The plasmid pXM-NT3 (Hallbook et al., Neuron 6:845-858 (1991), which contained the rat NT-3 cDNA clone, was provided by Dr. Ira Black (University of Medicine and Dentistry of New Jersey, Piscataway, N.J.). NT-3 cDNA was subcloned into the transfer vector pVL1392 (In Vitrogen Corp., San Diego, Calif.) for recombinant virus production. Recombinant baculovirus was produced as described in Meyer et al. (Meyer at al., J. Neurochem 62:825-833 (1994)).

[7] = test system: indoleamine 2,3-dioxygenase (IDO) mRNA in THP-1 cells; test: Inhibition of Induction By IFNγ of IDO mRNA; assay type: cell-based; conditions: Homo sapiens, compound 400 nM, IFNγ 400 units/ml, IDO/GAPD mRNA ratio, 48 hours, read-out: IDO mRNA, Phosphorimager units, % of IFNγ-treated cells
Protocol: Fused pyrrolocarbazoles in accordance with our invention were tested for their ability to inhibit the induction by IFNγ of indoleamine 2,3-dioxygenase (IDO) mRNA in THP-1 cells, a human monocyte cell line.
Cell Culture: THP-1 cells (American Type Culture Collection, Rockville, Md.), a human monocytic leukemia cell line, were grown in RPMI 1640 medium (Mediatech, Herndon Valley, Va.) with 50 μM 2-mercaptoethanol and 10% fetal bovine serum. Cells were plated in T75 culture flasks, at 4×10^4 cells/cm^2 in 10 ml of medium, and were immediately treated with fused pyrrolocarbazoles at various concentrations. After 30 minutes recombinant (E. coli) IFNγ (Boehringer Mannheim Corporation,Indianapolis, Ind.) was added at 200-400 units/ml. Cells were incubated (37° C., 5% CO2 /95% Air) for 48 hours after treatment.
RNA Isolation: Cells were pelleted by centrifugation (50× g, 7 min.) and medium was decanted. The cells were then washed two times with phosphate buffered saline pH 7.2 (PBS) (Mediatech, Herndon Valley, Va.). The washed cell pellet was lysed in 2 ml RNAzol B (Tel-Test, Inc., Friendswood, Tex.). RNA was isolated by chloroform extraction, precipitated, and washed following the "RNAzol B isolation of RNA" protocol accompanying this product. RNA was then solubilized in H2 O, and the concentration and purity were determined by reading the absorbance at A260 nm and A280 nm. Finally, the RNA was reprecipitated in ethanol, overnight at -20° C.
cDNA Probes: Indoleamine 2,3-dioxygenase (IDO) cDNA was received from Sohan L. Gupta, Ph. D. (Hipple Cancer Research Center, Dayton, Ohio) (see Da., W. & Gupta, S. L. 168 Biochem. Biophys. Res. Commun. 1, 1990 and Hassanain, H. H. et al. 268 J. Biol. Chem. 5077, 1993). Glyceraldehyde-3-phosphate dehydrogenase (GAPD) cDNA was obtained through American Type Culture Collection (Rockville, Md.). These cDNA's were produced and purified using standard methods (see, Sambrook, Fritsch, Maniatis (1989) Molecular Cloning a Laboratory Manual/Second Edition 1, 1.21-1.24, 1.74-1.81, hereinafter in this Example, "Maniatis a") using Qiagen plasmid purification kits (Qiagen Inc., Chatsworth, Calif.). DNA concentration and purity were determined by absorbance at 280 nm and 260 nm. Specific DNA inserts were cut out by standard methods using restriction enzymes, and subsequently separated on agarose gels as in Maniatis (see, Sambrook, Fritsch, Maniatis (1989) Molecular Cloning a Laboratory Manual/Second Edition 1, 6.9-6.15, hereinafter in this Example, "Maniatis b"). cDNA probes were further purified for [^32 P] labeling using the Geneclean II DNA purification kit (BIO 101, Inc., La Jolla, Calif.). Probes were labeled with dCTP-α-^32 P (Amersham Corp., Arlington Heights, Ill.) by random primer labeling, using the Prime-a-GeneLabeling System (Promega Corp., Madison, Wis.).
Analysis and quantification of mRNA: IDO mRNA was detected by Northern blot analysis (see Maniatis a, p. 7.39-7.51) using standard methods. […] Quantification of IDO mRNA was carried out using a phosphorimager (Molecular Dynamics) in which density (i.e., amount of RNA) is expressed as relative phosphorimager units. […] GAPD mRNA measurement by phosphorimager quantification of Northern blots serves as a means to normalize for potential sample to sample differences in the amount of total RNA loaded on gels. […]

[8] = test system: chick DRG neurons; test: DRG Neuron Survival Assay (calcein AM); assay type: cell-based; conditions: 48 hours; for viability at 0.25 µM: 250 nM
Protocol: Fused pyrrolocarbazoles promoted dorsal root ganglion (DRG) neuronal survival in cultures of chick DRG neurons. Cell survival was measured by uptake of calcein AM, an analog of the viable dye, fluorescein diacetate. Calcein is taken up by viable cells and cleaved intracellularly to fluorescent salts which are retained by intact membranes of viable cells. Microscopic counts of viable neurons correlate directly with relative fluorescence values obtained with the fluorimetric viability assay. This method thus provides a reliable and quantitive measurement of cell survival in the total cell population of a given culture (Bozyczko-Coyne et al., J. Neur. Meth. 50:205-216, 1993).
Methods: Dorsal root ganglia were dissected from embryonic age day 9 chick embryos and dissociated cells prepared by subsequent Dispase (neutral protease, Collaborative Research) dissociation. Neurons were seeded at low density (3×10^4 cells/cm^2) into 96 well poly-L-ornithine and laminin coated plates. Cells were cultured for 48 hours in serum-free N2 medium (Bottenstein and Sato, 1979) at 37° C. in a humidified atmosphere, 5% CO2 /95% air. Cell survival was assessed at 48 hours using the viable fluorimetric assay described above.

[9] = 16 μM ATP, 37° C., 15 min, read-out: INHIBITION OF trkA KINASE IC50
[10] = Gallus gallus, DRG neuron, read-out: Neuronal Survival (% of Control)

SMILES | Spinal Cord ChAT Activity, % of Control, untreated cultures [1] | ChAT Activity (% of Control) ([2]; 100 nM) | IC50 ([3]; 3 days, MTS) [nM] | IC50 [4] [nM] | IC50 [5, 9] [nM] | viability at 0.25 µM [8, 10] [%] | further results
O=C1NCc2c3c(c4[nH]c5ccccc5c4c21)Cc1ccccc1-3 [Compound I-3] | 174 % of Control | inactive | 380 | 100 | – | – | ChAT Activity (% of Control) ([2]; 250 nM): inactive; activity at 0.5 µM ([2]; Rattus norvegicus, 120 h, 500 nM, read-out: ChAT Activity (% of Control)): 130%
O=C1NC(=O)c2c1c1c(c3[nH]c4ccc(F)cc4c23)Cc2ccccc2-1 [Compound I-7] | 164 % of Control | – | 1370 | 150 | > 1000 | – | ChAT activity in the absence of NT-3 ([6]; compound added alone to basal forebrain neurons, no NT-3): no effect on ChAT activity; ChAT activity in the presence of NT-3 ([6]; with 100 ng/ml NT-3): enhanced ChAT activity
O=C1NCc2c1c1c(c3[nH]c4ccc(Br)cc4c23)Cc2ccccc2-1 [Compound I-9, 3-Bromo-5H, 6H, 12H, 13H-indeno[2,3-a]pyrrolo[3,4-c]carbazole-7(7H)one] | 185 % of Control | – | – | 4500 | – | – | mrna remaining at 0.4 µM [7]: 60%
O=C1NC(=O)c2c1c1c3ccccc3ccc1c1[nH]c3ccccc3c21 [Compound I-15, 6H, 14H-naphthyl[3,4-a]pyrrolo[3,4-c]carbazole-5,7(5H, 7H)-dione] | 182 % of Control | – | – | 50 | – | 132 | IC50 [5]: > 1000 nM; Neuronal Survival (% of Control) ([8]; 100 nM): inactive; Neuronal Survival (% of Control) ([8]; 500 nM): inactive; IC50 [3]: 4300 nM
O=C1NC(=O)c2c1c1c3ccccc3[nH]c1c1sc3ccccc3c21 [Compound I-20, 6H, 12-Benzo[b]thieno[2,3-a]pyrrolo[3,4-c]carbazole-5,7(5H,7H)dione] | 130 % of Control | – | > 10000 | 150 | – | – | –
O=C1NCc2c1c1c(c3[nH]c4ccc(C=Cc5ccccc5)cc4c23)Cc2ccccc2-1 [Compound I-24, 3-(2-Phenylethenyl)5H,6H,12H,13H-indeno[2,3-a]pyrrolo[3,4-c]carbazole-7(7H)-one] | 236 % of Control | inactive | > 10000 | 8000 | > 1000 | 167 | viability at 0.1 µM ([8]; Gallus gallus, DRG neuron, 100 nM, read-out: Neuronal Survival (% of Control)): 154%; viability at 0.5 µM ([8]; Gallus gallus, DRG neuron, 500 nM, read-out: Neuronal Survival (% of Control)): 163%; activity at 0.25 µM ([2]; Rattus norvegicus, 120 h, 250 nM, read-out: ChAT Activity (% of Control)): 151%
